Reference: article PMC12362618, “Development of the First Small-Molecule Inhibitor Targeting Oncostatin M for Treatment of Breast Cancer” (Journal of Medicinal Chemistry, 2025)
Entries after “also recorded” stand apart in the source; their conditions may differ.

What was measured:
OSM = biological target: T1, OSM (Homo sapiens, UniProt P13725); assay: Fluorescence quenching assay of SMI binding to OSM; conditions: average of three independent replicates, errors at 95% confidence level, read-out: KD (OSM-SMI dissociation constant)
T1 sequence (P13725 26-252): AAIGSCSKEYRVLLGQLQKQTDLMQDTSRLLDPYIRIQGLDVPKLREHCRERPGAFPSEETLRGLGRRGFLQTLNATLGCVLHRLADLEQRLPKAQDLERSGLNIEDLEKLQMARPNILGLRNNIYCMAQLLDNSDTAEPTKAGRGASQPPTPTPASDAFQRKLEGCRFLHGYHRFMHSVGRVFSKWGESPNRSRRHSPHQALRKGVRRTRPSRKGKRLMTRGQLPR
Procedure: To perform fluorescence quenching assays, 2 mL of 1 μM OSM solution in polymethylmethacrylate cuvettes was prepared by dilution of a concentrated stock solution of recombinant OSM with buffer solution (100 mM sodium chloride, 50 mM sodium phosphate, 50 mM freshly added DTT, pH = 6.6). Cuvettes were titrated with 5 μL increments of a 1 mM small molecule stock solution in DMSO, with a cuvette titrated with an equivalent volume of DMSO as a control. […] In cases where little to no significant quenching was observed, the titration was supplemented with 2.5 μL increments of a 10 mM small molecule stock solution to increase the concentration delivered. The fluorescence intensity measurements were obtained on a Cary Eclipse spectrofluorometer equipped with a Xenon arc lamp. Fluorescence intensities were measured by exciting at 280 nm (4 nm slit width) and recording the emission from 345 to 355 nm with a photomultiplier tube voltage of 700 V, unless otherwise noted. Each titration point was normalized to OSM’s native fluorescence intensity, corrected by adding the decrease in fluorescence intensity caused by dilution with DMSO, and the average value of the three replicates for each point was plotted against concentration of small molecule delivered and fit to a modified Stern–Volmer function as described by Charlier and Plapp. Binding affinity (K D) values were obtained […] from the fitting routine. All curve-fitting analysis was performed in GraphPad Prism 8.0.

[1] = tested on: OSM-induced pSTAT3 in T47D human breast cancer cells; assay: pSTAT3 ELISA in T47D cells treated with OSM ± SMI; format: cell-based; conditions: T47D, 30 min; for Inhibition of OSM-induced pSTAT3 via ELISA: SMI 10 μM, OSM 10 ng/mL
Procedure: (§1) To test the effect of SMIs in vitro, each SMI was incubated with OSM for a period of 1 h at 37 °C, and T47D and MDA-MB-231 human breast cancer cell lines were subsequently treated with OSM (10 ng/mL) and/or SMI-10 (10 μM) analogs for 30 min and measured for pSTAT3 levels via ELISA. The results of these assays are presented graphically in Figure and, for T47D cells, in Table as a percentage of reduction from +OSM alone. For phospho-STAT3 (pSTAT3) ELISAs, T47D MDA-MB-231, and MCF-7 cells were seeded in 12- or 24-well plates at 70–75% confluency and allowed to adhere overnight, after which cells were serum-starved with serum-free RPMI-1640 for 4 h. SMIs (10 μM in DMSO or serially diluted to specified concentrations from a 100 mM stock in DMSO) and human recombinant OSM (10 ng/mL; PeproTech; #300–10T-10UG) were incubated in serum-free RPMI-1640 medium for 1 h. After incubation, the SMI-10 analogs or SMI-10B13 and OSM were added to the serum-starved cells for 30 min. Immediately afterward, the cells were lysed using 1x PathScan Sandwich ELISA Lysis Buffer (Cell Signaling Technology; #7018S), collected, and stored at −20 °C. Lysates were analyzed for pSTAT3 levels using either the PathScan Phospho-STAT3 (Tyr705) Sandwich ELISA Antibody Pair kit (Cell Signaling Technology; #7146) or Human/Mouse Phospho-STAT3 (Y705) DuoSet IC ELISA (R&D Systems; DYC4607B), according to manufacture’s protocol. pSTAT3 expression was measured with absorbance at 450 nm and quantified by comparison relative to OSM-induced pSTAT3 levels. To calculate an IC50 for SMI-10B13, a standard curve was generated as described in the DuoSet IC ELISA datasheet to determine the concentration of pSTAT3.

[2] = tested on: OSM-mediated signaling (pSTAT3, pAKT, pJNK, pERK) in T47D cells; assay: Immunoblot of OSM-mediated signaling in T47D cells; format: cell-based, human; conditions: SMI 10 μM, OSM 10 ng/mL, 30 min
Procedure: For immunoblot analysis, T47D breast cancer cells were treated and collected in the same manner as described above for the ELISA preparation. After lysate collection, samples were run on a 10% SDS-PAGE gel and transferred to a nitrocellulose membrane via semidry transfer. Blots were rinsed with DI H2O and allowed to completely dry at room temperature before blocking with LiCor Intercept PBS Blocking Buffer (LiCor, Lincoln, NE; Cat# 927-90001) for 1 h. After blocking, primary antibodies (1:1000) suspended in blocking buffer supplemented with 0.1% Tween were added, shaken at room temperature for 1 h, and stored at 4 °C overnight. Membranes were then washed 6 times for 5 minutes each with 1X PBS supplemented with 0.5% Tween while shaking at room temperature, and secondary antibodies (1:15,000) were applied and incubated for 1 h. Afterward, membranes were washed as previously described above and imaged at 700 nm using the LiCor Odyssey CLx Imaging System. Quantification of immunoblots was performed using the LiCor Image Studio software, normalizing to β-Actin, and calculating relative fold change compared to nontreated samples. Antibodies used included phospho-STAT3 (Y705) (Cell Signaling Technology, Danvers, MA; cat. no. 9145), phospho-AKT (S473) (Cell Signaling Technology, Danvers, MA; cat. no. 4060), phospho-JNK ([…]/[…]) (Cell Signaling Technology, Danvers, MA; cat. no. 4668), phospho-ERK (T202/Y204) (Cell Signaling Technology, Danvers, MA; cat. no. 9101), β-Actin (Cell Signaling Technology; cat. no. 3700), and donkey antirabbit IRDye 800CW (LiCor, Lincoln, NE; Cat# 925-32213).

[3] = tested on: OSM-induced pSTAT3 in MDA-MB-231 human breast cancer cells; assay: pSTAT3 ELISA in MDA-MB-231 cells treated with OSM ± SMI; format: cell-based; conditions: SMI 10 μM, OSM 10 ng/mL, 30 min
Procedure: as §1, with “2 High-throughput virtual screening identifies three novel compounds capable of interacting with site III of OSM. […] (F) Structure of parent SMI-10. Data are presented as mean ± SD relative to + OSM treatment, analyzed by one-way ANOVA with Tukey’s posttest *p < 0.05, **p < 0.01. To test” for “To test”

[4] = SMI 10 μM + OSM 10 ng/mL, ELISA, relative to +OSM, no-treatment blank subtracted

| SMILES | Kd (OSM) [µM] | Relative pSTAT3 Levels (Table 2, SMI-10B analogs) [1, 4] [%] | Inhibition of OSM-mediated signaling cascades by immunoblot (words) [2] | Relative pSTAT3 Levels (Table 1, SMI-10A-10J) [1, 4] [%] | Inhibition of OSM-induced pSTAT3 via ELISA [1] | Inhibition of OSM-induced pSTAT3 via ELISA [3] |
| --- | --- | --- | --- | --- | --- | --- |
| O=C(O)CCc1cc(-c2ccc3c(c2)OCO3)c(-c2ccc3c(c2)OCO3)o1 [SMI-10B14, 3-(4,5-Bis(benzo[d][1,3]dioxol-5-yl)furan-2-yl)propanoic Acid] | 9.1 ± 1.5 | 79.65 | most effective; also recorded: better at inhibiting pSTAT3, pAKT, pJNK, and pERK signaling | – | – | – |
| O=C(/C=C/c1cc(-c2ccc3c(c2)OCO3)c(-c2ccc3c(c2)OCO3)o1)c1ccccc1 [SMI-10C] | 32.5 ± 3.4 | – | capable of inhibiting multiple cascades; also recorded: significant reductions, near nontreated levels | 11.9 | capable of inhibiting OSM-induced pSTAT3 | capable of inhibiting OSM-induced pSTAT3 |
| CCOC(=O)/C=C/c1cc(-c2ccc3c(c2)OCO3)c(-c2ccc3c(c2)OCO3)o1 [SMI-10D, Ethyl (E)-3-(4,5-Bis(benzo[d][1,3]dioxol-5-yl)furan-2-yl)acrylate] | 20.9 ± 2.4 | – | capable of inhibiting multiple cascades; also recorded: significant reductions, near nontreated levels | 9.0 | capable of inhibiting OSM-induced pSTAT3 | capable of inhibiting OSM-induced pSTAT3 |
| C(=N\Nc1ccccc1)/c1cc(-c2ccc3c(c2)OCO3)c(-c2ccc3c(c2)OCO3)o1 [SMI-10E, (E)-1-((4,5-Bis(benzo[d][1,3]dioxol-5-yl)furan-2-yl)methylene)-2-phenylhydrazine] | 21.2 ± 2.7 | – | capable of inhibiting multiple cascades; also recorded: significant reductions, near nontreated levels | 10.2 | capable of inhibiting OSM-induced pSTAT3 | capable of inhibiting OSM-induced pSTAT3 |
| c1ccc(CNCc2cc(-c3ccc4c(c3)OCO4)c(-c3ccc4c(c3)OCO4)o2)cc1 [SMI-10F, N-Benzyl-1-(4,5-bis(benzo[d][1,3]dioxol-5-yl)furan-2-yl)methanamine] | 16.8 ± 4.1 | – | capable of inhibiting multiple cascades; also recorded: significant reductions, near nontreated levels | 10.1 | capable of inhibiting OSM-induced pSTAT3 | capable of inhibiting OSM-induced pSTAT3 |
| O=C(/C=C/c1ccccc1)c1cc(-c2ccc3c(c2)OCO3)c(-c2ccc3c(c2)OCO3)o1 [SMI-10G, (E)-1-(4,5-Bis(benzo[d][1,3]dioxol-5-yl)furan-2-yl)-3-phenylprop-2-en-1-one] | 21.9 ± 3.5 | – | capable of inhibiting multiple cascades; also recorded: significant reductions, near nontreated levels | 8.8 | capable of inhibiting OSM-induced pSTAT3 | capable of inhibiting OSM-induced pSTAT3 |
| O=C(NCc1ccccc1)c1cc(-c2ccc3c(c2)OCO3)c(-c2ccc3c(c2)OCO3)o1 [SMI-10J, 4,5-Bis(benzo[d][1,3]dioxol-5-yl)-N-benzylfuran-2-carboxamide] | 30.5 ± 2.1 | – | significant reductions, near nontreated levels | 8.6 | – | – |
| O=[N+]([O-])c1c(/C=N/Nc2ccccc2)oc(-c2ccc3c(c2)OCO3)c1-c1ccc2c(c1)OCO2 [SMI-10] | – | – | – | – | – | effective inhibitors of OSM |
